According to patent US20080039483A1, “Novel Chelidonine Derivatives, Methods for the Production Thereof, and Use Thereof For Producing Pharmaceutical Agents” (priority 2003, published 2008):
≈ marks a conversion by molar mass, not a printed value.

Experiments:
[1] = tested on: T47D (breast); assay: MTT cytotoxicity test, T47D; assay type: cell-based
[2] = tested on: U373MG (astrocyte); assay: MTT cytotoxicity test, U373MG; assay type: cell-based
[3] = tested on: Panc1 (pancreas); assay: MTT cytotoxicity test, Panc1; assay type: cell-based
[4] = tested on: Colo205 (colon); assay: MTT cytotoxicity test, Colo205; assay type: cell-based
[5] = tested on: BxPC3 (pancreas); assay: MTT cytotoxicity test, BxPC3; assay type: cell-based
[6] = tested on: SK-0V3 (ovarian)
[7] = tested on: T47D, Colo205, Panc1, BxPC3, U373MG, SK-0V3; assay: MTT cytotoxicity test, activity compared to native chelidonine across the cell lines; assay type: cell-based; settings: for activity compared to native chelidonine: overall, times higher than native chelidonine; for activity compared to native chelidonine, range: range of times higher than native chelidonine

Molecule	IC50 ([1]; Homo sapiens)	IC50 ([2]; Homo sapiens, U373 MG)	IC50 ([3]; Homo sapiens, PANC-1)	IC50 ([4]; Homo sapiens, COLO 205)	IC50 ([5]; Homo sapiens, BXPC-3)	IC50, MTT cytotoxicity test [1]	IC50, MTT cytotoxicity test [2]	IC50, MTT cytotoxicity test [6]	IC50, MTT cytotoxicity test [3]	IC50, MTT cytotoxicity test [4]	activity compared to native chelidonine [7]	activity compared to native chelidonine, range [7]	IC50, MTT cytotoxicity test [5]
CN1Cc2c(ccc3c2OCO3)[C@@H]2[C@H]1c1cc3c(cc1C[C@@H]2O)OCO3 [Chelidonine]	0.2 µg/mL (≈ 0.566 µM)	> 8 µg/mL	0.25 µg/mL (≈ 0.707 µM)	0.37 µg/mL (≈ 1.05 µM)	> 8 µg/mL	–	–	–	–	–	–	–	–
COC(=O)CCC(=O)O[C@H]1Cc2cc3c(cc2[C@@H]2[C@H]1c1ccc4c(c1CN2C)OCO4)OCO3 [Chelidoninyl methyl succinate, Succinic Acid Chelidoninyl Methyl ester]	–	–	–	–	–	0.02 µg/mL	4 µg/mL	0.0035 µg/mL	0.005 µg/mL	0.0035 µg/mL	approximately 30 times	50-150 times	<0.0035 µg/mL
CN1Cc2c(ccc3c2OCO3)C2C(OC(=O)OC(Cl)(Cl)Cl)Cc3cc4c(cc3C21)OCO4 (centres unmarked) [Chelidoninyl trichloromethyl carbonate, Chelidoninyl Trichloromethyl Carbonate]	–	–	–	–	–	0.2 µg/mL (≈ 0.389 µM)	>8 µg/mL	–	0.25 µg/mL (≈ 0.486 µM)	0.5 µg/mL (≈ 0.971 µM)	–	–	>8 µg/mL
Chelidoninyl Trifluoroacetate [Chelidonine trifluoroacetate]	–	–	–	–	–	0.02 µg/mL	>4 µg/mL	0.06 µg/mL	0.06 µg/mL	0.045 µg/mL	5 times	4-10 times	0.03 µg/mL
